Experimental findings from article PMC3794980, “Identification of Conserved and HLA Promiscuous DENV3 T-Cell Epitopes” (PLoS Neglected Tropical Diseases, 2013) are described below.

Where two headings read alike, the source gives them in different places.

Some targets named below: DRB1*0802 (Homo sapiens, UniProt P01903+P01911, A100R/A103L/A169T/F76Y/H45Y/I96F/K41T/L162R/M171V/P40S/Q125H/Q178H/Q39Y/Q99D/R218S/R42G/S66Y/V115G/W38E); DRB1*1501 (Homo sapiens, UniProt P01903+P01911); DRB1*0101 (Homo sapiens, UniProt P01903+P01911, A100R/D57E/F55L/F60I/F76Y/I96L/L162R/M171V/P40L/Q125E/R42F/V115G/Y59C); DRB1*0405 (Homo sapiens, UniProt P01903+P01911, A100R/A169T/D86S/F76Y/I96L/K127E/L162R/M171V/N62H/P40V/Q125Y/R42H/S133A/S149N/S66Y/V115G/V209L/W38E); DRB3*0101 (Homo sapiens, UniProt P01903+P79483); DRB1*0404 (Homo sapiens, UniProt P01903+P01911, A100R/A169T/F76Y/I96L/K127E/L162R/M171V/N62H/P40V/Q125Y/R42H/S133A/S149N/S66Y/V209L/W38E); DRB1*0701 (Homo sapiens, UniProt P01903+P01911, A100R/A102G/A103Q/D57E/D86V/E43K/F76Y/K127E/L162R/M171V/P40G/Q125H/Q99D/R33Q/R42Y/R54Q/S133A/S66F/T210M/V115G/Y107V/Y59L/Y89S); DRB1*0401 (Homo sapiens, UniProt P01903+P01911, A100K/A169T/F76Y/I96L/K127E/L162R/M171V/N62H/P40V/Q125Y/R42H/S133A/S149N/S66Y/V115G/V209L/W38E); DRB4*0101 (Homo sapiens, UniProt P01903+P13762, G164S); DRB1*0301 (Homo sapiens, UniProt P01903+P01911, A100K/A102G/A103R/A169T/F55Y/I96L/K41T/L162R/M171V/P40S/Q125H/Q178H/Q39Y/R42S/S66N/T106N/T262R/W38E/Y61H); DRB1*1101 (Homo sapiens, UniProt P01903+P01911, A100R/A169T/A87E/I96F/K41T/L162R/M171V/P40S/Q125H/Q178H/Q39Y/Q99D/R42S/S66Y/T262R/V115G/W38E).

What all share (experiment): biochemical
Common to all, as to type: binding

Another test concerns the target DRB1*0901 (Homo sapiens, UniProt P01903+P01911, A100R/A103E/D57H/D86V/F55Y/F60I/F76Y/I96F/K127E/L162R/M171V/P40D/Q125H/Q99R/R33Q/R42F/S133A/S66N/T210M/V115G/W38K/Y107V/Y59G/Y89S). The conditions noted are these: competitive inhibition of radiolabeled standard peptide, read-out: Binding Affinity (nM) DRB1*0901.
A further test concerns the target DRB1*1302 (Homo sapiens, UniProt P01903+P01911, A100E/A169T/K41T/L162R/M171V/P40S/Q125H/Q178H/Q39Y/Q99D/R42S/S66N/T262R/V115G/W38E/Y61H). The conditions noted are these: competitive inhibition of radiolabeled standard peptide, read-out: Binding Affinity (nM) DRB1*1302.

DRB1*0301, sequence (P01903 26-254, other chains not shown): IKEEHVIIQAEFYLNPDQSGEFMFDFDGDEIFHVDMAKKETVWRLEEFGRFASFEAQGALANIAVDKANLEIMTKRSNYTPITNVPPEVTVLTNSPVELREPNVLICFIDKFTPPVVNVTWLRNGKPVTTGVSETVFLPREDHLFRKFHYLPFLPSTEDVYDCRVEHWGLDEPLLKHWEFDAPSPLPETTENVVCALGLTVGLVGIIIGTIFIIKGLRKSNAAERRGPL
DRB1*1101, sequence (P01903 26-254, other chains not shown): as above
DRB1*1302, sequence (P01903 26-254 limits assumed, other chains not shown): as the sequence (P01903 26-254, other chains not shown) above

Consider `CC[C@H](C)[C@H](NC(=O)[C@H](CC(C)C)NC(=O)[C@H](CCCNC(=N)N)NC(=O)CNC(=O)[C@@H](N)CC(N)=O)C(=O)N[C@H](C(=O)N[C@@H](C)C(=O)N[C@@H](CC(N)=O)C(=O)N1CCC[C@H]1C(=O)N[C@H](C(=O)N[C@H](C(=O)N[C@H](C(=O)N[C@@H](CCCCN)C(=O)N[C@@H](CCCCN)C(=O)N[C@@H](CCC(=O)O)C(=O)O)[C@@H](C)O)C(C)C)C(C)C)[C@@H](C)O` [Envelope 346-360], for which the IC50 against DRB1*0802 was found to be 288 nM; on DRB1*1501 it was 332 nM; at DRB1*0901 ('-' distinct from ND), 333 nM; at DRB1*0101, 4.5 nM; against DRB1*0405, 6740 nM; on DRB3*0101, 18300 nM. Further, the IC50 on DRB1*0404 worked out at 15300 nM; against DRB1*0701, 68 nM; at DRB1*1302 ('-' distinct from ND), 15 nM; against DRB1*0401, 343 nM; on DRB4*0101, 3000 nM; on DRB1*0301, 216 nM. The molecule further gave an IC50 at DRB1*1101 of 10600 nM.

For `CC(C)C[C@H](NC(=O)[C@@H](NC(=O)CNC(=O)[C@H](CC(N)=O)NC(=O)[C@H](CO)NC(=O)[C@H](Cc1c[nH]c2ccccc12)NC(=O)[C@H](CC(C)C)NC(=O)[C@@H](NC(=O)[C@H](Cc1c[nH]cn1)NC(=O)[C@H](CO)NC(=O)[C@H](CCCCN)NC(=O)[C@@H]1CCCN1C(=O)[C@@H](N)Cc1c[nH]c2ccccc12)[C@@H](C)O)C(C)C)C(=O)N[C@@H](CCC(=O)O)C(=O)N[C@@H](CO)C(=O)O` [NS1 225-239], the IC50 against DRB1*0802 stood at 4830 nM; on DRB1*1501 it was 4120 nM; at DRB1*0901 ('-' distinct from ND) it was 9390 nM; at DRB1*0101 it was 3920 nM; against DRB1*0405, 4420 nM; on DRB1*0404 it was 3930 nM. In addition, the IC50 against DRB1*0701 was determined as 5690 nM; on DRB1*1302 ('-' distinct from ND) it was 59 nM; at DRB1*0401 it was 322 nM; against DRB4*0101 it was 6540 nM; against DRB1*0301 it was 520 nM; at DRB1*1101, 12900 nM.

`CC[C@H](C)[C@H](NC(=O)[C@H](CC(N)=O)NC(=O)CNC(=O)[C@@H](NC(=O)CNC(=O)[C@H](CC(N)=O)NC(=O)[C@@H](N)CO)[C@@H](C)O)C(=O)N[C@H](C(=O)N[C@@H](CO)C(=O)N[C@@H](CO)C(=O)N[C@H](C(=O)N[C@@H](CC(N)=O)C(=O)N[C@@H](CCSC)C(=O)N[C@H](C(=O)N[C@@H](CO)C(=O)N[C@@H](CCCNC(=N)N)C(=O)N[C@@H](CC(C)C)C(=O)O)C(C)C)C(C)C)C(C)C` [NS5 221-237]: the IC50 came to 5.8 nM against DRB1*0802; 20 nM on DRB1*1501; 45 nM at DRB1*0901 (DRB1*0901); 4 nM against DRB1*0101; 25 nM at DRB1*0405; 6300 nM on DRB3*0101. Also, the IC50 amounted to 84 nM against DRB1*0404; 21 nM at DRB1*0701; 65 nM at DRB1*1302 (DRB1*1302); 1.1 nM against DRB1*0401; 60 nM on DRB4*0101; 15 nM against DRB1*0301. Also, the IC50 against DRB1*1101 came to 31 nM.

With `CSCC[C@H](NC(=O)[C@@H](NC(=O)[C@H](Cc1ccccc1)NC(=O)[C@H](CCCNC(=N)N)NC(=O)[C@H](CC(N)=O)NC(=O)[C@H](CC(C)C)NC(=O)[C@H](CC(C)C)NC(=O)[C@H](CC(C)C)NC(=O)[C@H](CCCNC(=N)N)NC(=O)[C@H](CO)NC(=O)[C@@H](NC(=O)[C@@H](N)CCSC)C(C)C)[C@@H](C)O)C(=O)N[C@H](C(=O)N[C@@H](Cc1c[nH]cn1)C(=O)N[C@@H](CCCNC(=N)N)C(=O)N[C@@H](CCCNC(=N)N)C(=O)O)[C@@H](C)O` [NS5 233-248], the IC50 against DRB1*0802 amounted to 159 nM; on DRB1*1501, 307 nM; at DRB1*0901 (DRB1*0901) it was 569 nM; at DRB1*0101, 108 nM; on DRB1*0405, 699 nM; against DRB3*0101, 2240 nM. For the same molecule, the IC50 was 1070 nM against DRB1*0404; 97 nM on DRB1*0701; 34 nM at DRB1*1302 (DRB1*1302); 57 nM at DRB1*0401; 617 nM against DRB4*0101; 327 nM on DRB1*0301. Also, the IC50 on DRB1*1101 came to 16 nM.

With `C[C@@H](O)[C@H](NC(=O)[C@H](CO)NC(=O)[C@H](CO)NC(=O)[C@H](Cc1c[nH]cn1)NC(=O)[C@H](CCC(=O)O)NC(=O)[C@H](CCC(=O)O)NC(=O)[C@@H](N)CCCCN)C(=O)N[C@@H](Cc1c[nH]c2ccccc12)C(=O)N[C@@H](Cc1c[nH]cn1)C(=O)N[C@@H](Cc1ccc(O)cc1)C(=O)N[C@@H](CC(=O)O)C(=O)N[C@@H](CC(=O)O)C(=O)N[C@@H](CCC(=O)O)C(=O)N[C@@H](CC(N)=O)C(=O)N1CCC[C@H]1C(=O)N[C@@H](Cc1ccc(O)cc1)C(=O)N[C@@H](CCCCN)C(=O)O` [NS5 284-300], the IC50 on DRB1*0802 was 1540 nM; at DRB1*1501 it was 5900 nM; at DRB1*0901 (DRB1*0901), 8140 nM; against DRB1*0101 it was 2100 nM; at DRB1*0405, 8690 nM; against DRB3*0101, 17 nM. Besides, the IC50 on DRB1*0404 came out at 18200 nM; against DRB1*0701 it was 2490 nM; on DRB1*1302 (DRB1*1302), 2030 nM; against DRB1*0401, 306 nM; on DRB4*0101 it was 14100 nM; on DRB1*0301, 9.3 nM. Also, the IC50 against DRB1*1101 worked out at 1400 nM.

As for `CC(C)C[C@H](NC(=O)[C@H](C)NC(=O)[C@H](CCC(=O)O)NC(=O)[C@H](Cc1ccccc1)NC(=O)[C@H](CCC(=O)O)NC(=O)[C@H](CC(C)C)NC(=O)[C@H](Cc1ccc(O)cc1)NC(=O)[C@H](CCCNC(=N)N)NC(=O)[C@H](C)NC(=O)CNC(=O)[C@H](CC(C)C)NC(=O)[C@@H](N)Cc1c[nH]c2ccccc12)C(=O)NCC(=O)N[C@@H](Cc1ccccc1)C(=O)N[C@@H](CC(C)C)C(=O)N[C@@H](CC(N)=O)C(=O)N[C@@H](CCC(=O)O)C(=O)O` [NS5 477-493], the IC50 against DRB1*0802 worked out at 2280 nM; against DRB1*1501, 338 nM; at DRB1*0901 (DRB1*0901), 79 nM; against DRB1*0101, 12 nM; at DRB1*0405 it was 54 nM; on DRB3*0101, 26 nM. Further, the IC50 against DRB1*0404 came out at 124 nM; against DRB1*0701, 26 nM; at DRB1*1302 (DRB1*1302), 9750 nM; against DRB1*0401 it was 67 nM; on DRB4*0101, 274 nM; at DRB1*0301, 2420 nM. Besides, the IC50 against DRB1*1101 was 710 nM.

As to `CC[C@H](C)[C@H](NC(=O)[C@H](C)NC(=O)[C@H](CC(N)=O)NC(=O)[C@H](CO)NC(=O)[C@H](C)NC(=O)[C@H](CC(C)C)NC(=O)[C@H](CCCNC(=N)N)NC(=O)[C@H](CC(C)C)NC(=O)[C@H](CC(=O)O)NC(=O)[C@H](CCCNC(=N)N)NC(=O)[C@@H](N)CCCNC(=N)N)C(=O)N[C@@H](CS)C(=O)N[C@@H](CO)C(=O)N[C@@H](C)C(=O)N[C@H](C(=O)N1CCC[C@H]1C(=O)N[C@H](C(=O)O)C(C)C)C(C)C` [NS5 769-785], the IC50 on DRB1*0802 was determined as 28 nM; on DRB1*1501 it was 21 nM; on DRB1*0901 (DRB1*0901), 61 nM; against DRB1*0101 it was 28 nM; against DRB1*0405, 16 nM; on DRB1*0404, 93 nM. Also, the IC50 against DRB1*0701 was determined as 121 nM; at DRB1*1302 (DRB1*1302), 4.5 nM; against DRB1*0401, 3.6 nM; on DRB4*0101, 212 nM; at DRB1*0301, 409 nM; at DRB1*1101 it was 79 nM.
